What all share (assay): NCI tumour cell line growth inhibition, 48 h
Assay [1] relates to MDA-MB-231 breast.
The test system of assay [2] is OVCAR-3 ovarian.
For assay [3], the system named is MDA-MB-435.
Assay [4] relates to PC-3 prostate.
The subject of assay [5] is COLO 205 colon.
Assay [6] concerns SF-295 CNS.
In assay [7] the test system is NCI-H522 lung.

Molecules are shown by their SMILES.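 Each compound was tested at five concentrations against cells in 96-well plates for 48 hours. At the GI50, growth is halved. The concentration for full growth arrest is given as TGI.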

Take `C[C@H]1[C@H](C)CC[C@]2(C(=O)NCCNCCN)CC[C@]3(C)C(=CC[C@@H]4[C@@]5(C)CCC(=O)C(C)(C)[C@@H]5CC[C@]43C)[C@H]12`: the GI50 in assay [1] is 1.66 µM; in assay [2], 1.8 µM; in assay [3], 1.73 µM; in assay [4], 1.74 µM. Further, the TGI in assay [1] was determined as 3.08 µM; in assay [2], 3.3 µM; in assay [3] it was 3.23 µM; in assay [4] it was 3.81 µM.
Regarding `Cn1c(/C(C#N)=C/c2ccc3ccccc3c2)cc2ccccc21`, the GI50 in assay [1] was 0.46 µM; in assay [5], 0.309 µM; in assay [3], 0.0317 µM; in assay [6], 0.11 µM; in assay [4], 0.22 µM. The TGI in assay [1] was greater than 100 µM; in assay [5], greater than 26.1 µM; in assay [3], 0.109 µM; in assay [6] it was 0.463 µM; in assay [4] it was greater than 100 µM.
Take `C=CCO/N=C/c1cc(NC(=S)c2ccoc2C)ccc1Cl`: the TGI in assay [1] was 30.1 µM; in assay [2], 24.3 µM; in assay [5] it was 27.5 µM; in assay [7], 23.7 µM; in assay [3], 54.4 µM; in assay [6] it was 26.6 µM. Moreover, the TGI in assay [4] stood at 27.6 µM.
Consider `CCC(=C(c1ccc(OCCCN(C)C)cc1)c1ccc(OCCCN(C)C)cc1)c1ccc(Cl)cc1`, for which the GI50 was 0.413 µM in assay [1]; 0.429 µM in assay [2]; 0.399 µM in assay [5]; 0.48 µM in assay [7]; 0.292 µM in assay [3]; 2.35 µM in assay [6]. Moreover, the GI50 in assay [4] is 1.09 µM. For the same compound, the TGI in assay [1] stood at 1.07 µM; in assay [2] it was 1.08 µM; in assay [5], 1.04 µM; in assay [7] it was 1.69 µM; in assay [3] it was 0.556 µM; in assay [6] it was 4.61 µM. The compound further yielded a TGI in assay [4] of 3.39 µM.
Regarding `CCCCCCCCCCCCCCCCCCNC(=O)[C@H]1CSC(c2cccs2)N1` (some centres not stated), the GI50 was 0.826 µM in assay [1]; 1.48 µM in assay [2]; greater than 50 µM in assay [5]; 3.59 µM in assay [7]; 0.77 µM in assay [3]; 5.58 µM in assay [6]. Also, the GI50 in assay [4] was 1.75 µM. In addition, the TGI was 1.59 µM in assay [1]; 3.97 µM in assay [2]; greater than 50 µM in assay [5]; greater than 50 µM in assay [7]; 1.53 µM in assay [3]; greater than 50 µM in assay [6]. In assay [4], this compound yielded a TGI greater than 50 µM.
Turning to `c1ccc(Cn2cnc3ccc(-c4nc(-c5ccc6c(c5)ncn6C5CCCCC5)cn5ccnc45)cc32)cc1`, the GI50 in assay [2] was 2.27 µM; in assay [7] it was 2.03 µM; in assay [4] it was 1.97 µM. For the same compound, the TGI in assay [2] came out at 5.8 µM; in assay [7], 5.09 µM; in assay [4], 7.55 µM.
In the case of `COCCOCCOCc1n(Cc2ccc3ccccc3n2)c2ccccc2[n+]1Cc1ccc2ccccc2c1`, the GI50 in assay [1] was 0.356 µM; in assay [2], 0.358 µM; in assay [5] it was 0.281 µM; in assay [7], 0.248 µM; in assay [3], 0.339 µM; in assay [6] it was 0.804 µM. The GI50 in assay [4] is 0.352 µM. Further, the TGI in assay [1] was 1.45 µM; in assay [2], 1.52 µM; in assay [5], 0.876 µM; in assay [7] it was 0.936 µM; in assay [3] it was 1.31 µM; in assay [6], 2.58 µM. The compound further returned a TGI in assay [4] of 2.29 µM.
Regarding `C=C(CN1CCc2ccccc2C1)c1ccc(C(=O)Nc2ccccc2N)cc1`, the GI50 in assay [1] is 0.973 µM; in assay [2] it was 1.38 µM; in assay [5] it was 1.52 µM; in assay [7] it was 0.732 µM; in assay [3] it was 1.47 µM; in assay [6] it was 1.27 µM. Further, the GI50 in assay [4] is 2.01 µM. Further, the TGI in assay [1] came to 3.15 µM; in assay [2], 6.76 µM; in assay [5], 7.4 µM; in assay [7], 3.72 µM; in assay [3], 4.23 µM; in assay [6], 3.53 µM. The same compound returned a TGI in assay [4] greater than 50 µM.
For `CC(=O)N[C@H](C(=O)N[C@@H](CCCNC(=N)N)C(=O)N[C@@H](CCCCN)C(=O)N[C@@H](CCCNC(=N)N)C(=O)N[C@]1(C)CCCCCC/C=C\CCC[C@@](C)(C(=O)N[C@@H](CCCNC(=N)N)C(=O)N[C@@H](CCC(=O)O)C(=O)N[C@@H](CC(C)C)C(=O)N[C@H](C(=O)N[C@@H](CCC(=O)O)C(N)=O)C(C)C)NC(=O)[C@H](CCC(N)=O)NC(=O)[C@H](CC(C)C)NC(=O)[C@H](CC(C)C)NC(=O)[C@H](CCCNC(=N)N)NC(=O)[C@H](CCCNC(=N)N)NC(=O)[C@H](CC(C)C)NC1=O)C(C)C`, the GI50 in assay [1] was 3.68 µM; in assay [2] it was 6.16 µM; in assay [5] it was 1.3 µM; in assay [7] it was 2.66 µM; in assay [3], 1.42 µM; in assay [6], 4.4 µM. Further, the GI50 in assay [4] was 8.24 µM. For the same compound, the TGI is greater than 50 µM in assay [1]; 19.2 µM in assay [2]; 4.54 µM in assay [5]; greater than 50 µM in assay [7]; 4.28 µM in assay [3]; 30.1 µM in assay [6]. The compound also came in with a TGI in assay [4] of 23.7 µM.
Turning to `O=C1C(Cl)=C(Nc2ccccc2)C(=O)c2ccccc21`, the GI50 in assay [1] was 1.58 µM; in assay [2], 1.67 µM; in assay [5], 1.88 µM; in assay [7], 1.66 µM; in assay [3], 1.8 µM; in assay [6] it was 10.6 µM. For the same compound, in assay [4], the GI50 is 3.61 µM. For the same compound, the TGI in assay [1] came out at 3.3 µM; in assay [2], 3.15 µM; in assay [5], 3.77 µM; in assay [7], 3.77 µM; in assay [3], 3.27 µM; in assay [6] it was 24.1 µM. The TGI in assay [4] came to 22.1 µM.
Take `Cc1ccc2c(c1)Sc1ccc(N=NN(C)C)cc1N2C`: the TGI in assay [1], in assay [2], in assay [5], in assay [7], in assay [3] and in assay [6] was greater than 100 µM throughout. The TGI in assay [4] was greater than 100 µM.
For `Cn1cc(-c2csc(-c3cn(C)c4ccccc34)n2)c2cnccc21`, the GI50 in assay [1] was 1.47 µM; in assay [2], 2.16 µM; in assay [7] it was 2 µM; in assay [3], 1.77 µM; in assay [6], 1.63 µM; in assay [4] it was 1.47 µM. In addition, the TGI stood at 2.89 µM in assay [1]; 4.13 µM in assay [2]; 3.84 µM in assay [7]; 3.24 µM in assay [3]; 3.07 µM in assay [6]; 2.99 µM in assay [4].
For the compound `O=C(c1ccc2ccccc2c1)c1c(C(F)(F)F)n([O-])c2ccc(Cl)cc2[n+]1=O`, the GI50 in assay [1] was 1.59 µM; in assay [2], 1.32 µM; in assay [5], 1.34 µM; in assay [7], 1.61 µM; in assay [3] it was 1.66 µM; in assay [6] it was 1.66 µM. Also, the TGI is 3.21 µM in assay [1]; 2.62 µM in assay [2]; 2.73 µM in assay [5]; 3.02 µM in assay [7]; 3.17 µM in assay [3]; 3.08 µM in assay [6].
Regarding `O=C(O)CCC(NC(=S)S)C(=O)O.[Na+].[Zn+2]` (configuration not stated), the GI50 in assay [1], in assay [2], in assay [5], in assay [7], in assay [3] and in assay [4] was greater than 50 µM in each case. Also, the TGI in assay [1], in assay [2], in assay [5], in assay [7], in assay [3] and in assay [4] was greater than 50 µM throughout.
On to `OC(CN1CC1)C(O)CN1CC1` (configuration not stated), for which the GI50 in assay [1], in assay [2], in assay [7], in assay [3], in assay [6] and in assay [4] was greater than 50 µg/mL in each case. Besides, the TGI in assay [1], in assay [2], in assay [7], in assay [3], in assay [6] and in assay [4] was greater than 50 µg/mL in each case.
With `O=c1c2c3c(sc2n2c(-c4cc(-c5ccccc5)nn4-c4ccccc4)nnc2n1Cc1ccccc1)CCCC3`, the GI50 in assay [1], in assay [2], in assay [5], in assay [3], in assay [6] and in assay [4] was greater than 100 µM in each case. For the same compound, the TGI in assay [1], in assay [2], in assay [5], in assay [3], in assay [6] and in assay [4] was greater than 100 µM in each case.
On to `Cc1cc(Nc2nc(SCc3ccc(C(=O)Nc4ccc(F)cc4N)cc3)nn3cccc23)n[nH]1`, for which the GI50 is 0.854 µM in assay [1]; 0.202 µM in assay [2]; 0.0488 µM in assay [7]; 0.354 µM in assay [6]; 0.355 µM in assay [4]. Besides, the TGI is greater than 100 µM in assay [1]; 49.1 µM in assay [2]; 0.565 µM in assay [7]; 25.9 µM in assay [6]; 44.2 µM in assay [4].
